{"source": "paper PMC9508239", "about": "(Nature Communications, 2022)", "key": {"IR D496K": {"test_system": "IR D496K", "experiment": "Auto-phosphorylation of IR in 293FT cells expressing IR D496K", "assay_type": "cell-based, human", "procedure": "(§1) For the activation assay, the short isoform of human IR in pCS2-MYC was used as described previously[20],[49]. Plasmid transfections into 293FT cells were performed with Lipofectamin^TM 2000 (Invitrogen).\n(§2) The cells were incubated with the lysis buffer B [50 mM Hepes pH 7.4, 150 mM NaCl, 10% Glycerol, 1% Triton X-100, 1 mM EDTA, 100 mM sodium fluoride, 2 mM sodium orthovanadate, 20 mM sodium pyrophosphate, 0.5 mM dithiothreitol (DTT), 2 mM phenylmethylsulfonyl fluoride (PMSF)] supplemented with cOmplete Protease Inhibitor Cocktail (Roche), PhosSTOP (Sigma), and 25 U/ml turbo nuclease (Accelagen) on ice for 1 h. After centrifuging at 20,817×g at 4 °C for 10 min, the concentrations of cell lysate were measured using Micro BCA Protein Assay Kit (Thermo Scientific). About 50–60 μg total proteins were analyzed by SDS-PAGE and quantitative Western blotting. […] For quantitative western blots, anti-rabbit immunoglobulin G (IgG) (H + L) (WB, 1:5000; Dylight 800 conjugates, Cat. #5151) and anti-mouse IgG (H + L) (WB, 1:5000; Dylight 680 conjugates, Cat. #5470) (Cell Signaling) were used as secondary antibodies. […]"}, "blood glucose [1]": {"test_system": "blood glucose", "experiment": "Insulin tolerance test", "assay_type": "in vivo, mouse", "settings": "i.p.; Humulin 6 nmol/kg, S597, S20D, W6A, F27A 9 nmol/kg, N20 27 nmol/kg; male mice", "procedure": "Briefly, 2–3 months old male mice were fasted for 2 h and their blood glucose levels (T = 0) were measured with tail bleeding using a glucometer (AlphaTRAK). After then, mice were injected intraperitoneally with Humulin (6 nmol/kg body weight), S597 (9 nmol/kg), S597-S20D (9 nmol/kg), S597-W6A (9 nmol/kg), S597-F27A (9 nmol/kg), or S597-N20 (27 nmol/kg), and their blood glucose levels were measured at the indicated time points after injection."}, "IR E697A": {"test_system": "IR E697A", "experiment": "Auto-phosphorylation of IR in 293FT cells expressing IR E697A", "assay_type": "cell-based, human", "procedure": "as §1, §2"}, "IR K484E/L552A": {"test_system": "IR K484E/L552A", "experiment": "Auto-phosphorylation of IR in 293FT cells expressing IR K484E/L552A", "assay_type": "cell-based, human", "settings": "10 nM, 10 min", "procedure": "as §1, §2"}, "IR F701A/F705A": {"test_system": "IR F701A/F705A", "experiment": "Auto-phosphorylation of IR in 293FT cells expressing IR F701A/F705A", "assay_type": "cell-based, human", "procedure": "as §1, §2"}, "IR R345A": {"test_system": "IR R345A", "experiment": "Auto-phosphorylation of IR in 293FT cells expressing IR R345A", "assay_type": "cell-based, human", "procedure": "as §1, §2"}, "IR D707A": {"test_system": "IR D707A", "experiment": "Auto-phosphorylation of IR in 293FT cells expressing IR D707A", "assay_type": "cell-based, human", "procedure": "as §1, §2"}, "IR F96A": {"test_system": "IR F96A", "experiment": "Auto-phosphorylation of IR in 293FT cells expressing IR F96A", "assay_type": "cell-based, human", "settings": "10 nM, 10 min", "procedure": "as §1, §2"}, "blood glucose [2]": {"test_system": "blood glucose", "experiment": "Oral glucose tolerance test after chronic treatment", "assay_type": "in vivo, mouse", "parameters": "Mean Diff. of blood glucose (OGTT) / blood glucose (OGTT) / Supplementary Figure 10d (area under the OGTT glucose curve): unit not given here", "settings": "for Mean Diff. of blood glucose (OGTT), PBS vs. treatment: PBS minus treatment, Tukey's multiple comparisons test; for Mean Diff. of blood glucose (OGTT): Dunnett's multiple comparisons test; for Supplementary Figure 10d (area under the OGTT glucose curve): time 0-120", "procedure": "For the oral glucose tolerance test, mice were fasted for 6 h and their blood glucose levels (T = 0) were measured with tail bleeding using a glucometer (AlphaTRAK). After then, glucose (2 g/kg body weight) was administered by oral gavage. Blood glucose levels were measured at the indicated time points after glucose administration. For Fig. S10f, 2 months old male mice were fasted for 14 h. […] One hour later, livers were collected."}}, "data": [{"substance": "insulin: native IR ligand used as comparator; Humulin in the in vivo tests", "values": [{"measurement": "IR activation", "setting": "IR D496K", "value": "reduced insulin-dependent IR activation"}, {"measurement": "blood glucose lowering", "setting": "blood glucose [1]", "value": "significantly reduced"}, {"measurement": "IR activation", "setting": "IR E697A", "value": "largely diminished IR activation by insulin"}, {"measurement": "IR activation", "setting": "IR K484E/L552A", "value": "could not be activated efficiently"}, {"measurement": "IR activation", "setting": "IR F701A/F705A", "value": "reduced insulin-dependent IR activation"}, {"measurement": "IR activation", "setting": "IR R345A", "value": "largely diminished IR activation by insulin"}, {"measurement": "IR activation", "setting": "IR D707A", "value": "reduced insulin-dependent IR activation"}, {"measurement": "IR activation", "setting": "IR F96A", "value": "defective insulin-dependent activation"}, {"measurement": "Mean Diff. of blood glucose (OGTT), PBS vs. treatment", "setting": "blood glucose [2]; Row 1 (time 0)", "value": -8}, {"measurement": "Mean Diff. of blood glucose (OGTT)", "setting": "blood glucose [2]; Row 1 vs. Row 2 (time 0 minus time 15)", "value": -254.8}, {"measurement": "Mean Diff. of blood glucose (OGTT)", "setting": "blood glucose [2]; Row 1 vs. Row 3 (time 0 minus time 30)", "value": -168.8}, {"measurement": "Mean Diff. of blood glucose (OGTT)", "setting": "blood glucose [2]; Row 1 vs. Row 4 (time 0 minus time 60)", "value": -60}, {"measurement": "Mean Diff. of blood glucose (OGTT)", "setting": "blood glucose [2]; Row 1 vs. Row 5 (time 0 minus time 120)", "value": -35.2}, {"measurement": "Mean Diff. of blood glucose (OGTT), PBS vs. treatment", "setting": "blood glucose [2]; Row 2 (time 15)", "value": -66.2}, {"measurement": "Mean Diff. of blood glucose (OGTT), PBS vs. treatment", "setting": "blood glucose [2]; Row 3 (time 30)", "value": -9}, {"measurement": "Mean Diff. of blood glucose (OGTT), PBS vs. treatment", "setting": "blood glucose [2]; Row 4 (time 60)", "value": 1}, {"measurement": "Mean Diff. of blood glucose (OGTT), PBS vs. treatment", "setting": "blood glucose [2]; Row 5 (time 120)", "value": -9.8}, {"measurement": "Supplementary Figure 10d (area under the OGTT glucose curve)", "setting": "blood glucose [2]; mouse 1", "value": 37808}, {"measurement": "Supplementary Figure 10d (area under the OGTT glucose curve)", "setting": "blood glucose [2]; mouse 2", "value": 37043}, {"measurement": "Supplementary Figure 10d (area under the OGTT glucose curve)", "setting": "blood glucose [2]; mouse 3", "value": 31785}, {"measurement": "Supplementary Figure 10d (area under the OGTT glucose curve)", "setting": "blood glucose [2]; mouse 4", "value": 39735}, {"measurement": "Supplementary Figure 10d (area under the OGTT glucose curve)", "setting": "blood glucose [2]; mouse 5", "value": 46950}, {"measurement": "blood glucose (OGTT)", "setting": "blood glucose [2]; time 0, mouse 1", "value": 197}, {"measurement": "blood glucose (OGTT)", "setting": "blood glucose [2]; time 0, mouse 2", "value": 199}, {"measurement": "blood glucose (OGTT)", "setting": "blood glucose [2]; time 0, mouse 3", "value": 224}, {"measurement": "blood glucose (OGTT)", "setting": "blood glucose [2]; time 0, mouse 4", "value": 245}, {"measurement": "blood glucose (OGTT)", "setting": "blood glucose [2]; time 0, mouse 5", "value": 272}, {"measurement": "blood glucose (OGTT)", "setting": "blood glucose [2]; time 15, mouse 1", "value": 530}, {"measurement": "blood glucose (OGTT)", "setting": "blood glucose [2]; time 15, mouse 2", "value": 406}, {"measurement": "blood glucose (OGTT)", "setting": "blood glucose [2]; time 15, mouse 3", "value": 488}, {"measurement": "blood glucose (OGTT)", "setting": "blood glucose [2]; time 15, mouse 4", "value": 463}, {"measurement": "blood glucose (OGTT)", "setting": "blood glucose [2]; time 15, mouse 5", "value": 524}, {"measurement": "blood glucose (OGTT)", "setting": "blood glucose [2]; time 30, mouse 1", "value": 434}, {"measurement": "blood glucose (OGTT)", "setting": "blood glucose [2]; time 30, mouse 2", "value": 354}, {"measurement": "blood glucose (OGTT)", "setting": "blood glucose [2]; time 30, mouse 3", "value": 258}, {"measurement": "blood glucose (OGTT)", "setting": "blood glucose [2]; time 30, mouse 4", "value": 409}, {"measurement": "blood glucose (OGTT)", "setting": "blood glucose [2]; time 30, mouse 5", "value": 526}, {"measurement": "blood glucose (OGTT)", "setting": "blood glucose [2]; time 60, mouse 1", "value": 273}, {"measurement": "blood glucose (OGTT)", "setting": "blood glucose [2]; time 60, mouse 2", "value": 303}, {"measurement": "blood glucose (OGTT)", "setting": "blood glucose [2]; time 60, mouse 3", "value": 206}, {"measurement": "blood glucose (OGTT)", "setting": "blood glucose [2]; time 60, mouse 4", "value": 300}, {"measurement": "blood glucose (OGTT)", "setting": "blood glucose [2]; time 60, mouse 5", "value": 355}, {"measurement": "blood glucose (OGTT)", "setting": "blood glucose [2]; time 120, mouse 1", "value": 211}, {"measurement": "blood glucose (OGTT)", "setting": "blood glucose [2]; time 120, mouse 2", "value": 262}, {"measurement": "blood glucose (OGTT)", "setting": "blood glucose [2]; time 120, mouse 3", "value": 257}, {"measurement": "blood glucose (OGTT)", "setting": "blood glucose [2]; time 120, mouse 4", "value": 275}, {"measurement": "blood glucose (OGTT)", "setting": "blood glucose [2]; time 120, mouse 5", "value": 308}]}]}
